# Experimental data reported in ChEMBL document CHEMBL3507680, “University of Dundee, Gates Library screen for HepG2 cell viability”.
# Test: Human HepG2 cell viability assay in 384 well format
# Type: toxicity, cell-based
# Set-up: dose 125 nL, time 70.5 hour; cytotoxicity at 70.5 h: concentration not given beside the values
# Settings: HepG2 cells, read-out: Inhibition
row,SMILES,cytotoxicity at 70.5 h
1,Cn1cnc(-c2ccc(F)cc2)c1NC(=O)CCNC(=O)C(C)(C)C,-7.61%
2,CCNC(=O)C1CCCN1S(=O)(=O)c1sc(=O)[nH]c1C (centres undefined),-4.2%
3,CNC(=O)c1cccc(CCNc2ncc(Br)cn2)c1,7.32%
4,Fc1ccc(OC2CCN(Cc3nnc(-c4ccco4)o3)CC2)cc1,18.9%
5,COc1ncc(C)cc1NC(=O)COCC(F)(F)F,2.73%
6,COc1ncc(C)cc1NC(=O)CCc1ccccn1,17.6%
7,CCc1csc(NC(=O)NCc2ccccn2)n1,-2.4%
8,COCc1csc(NC(=O)NCc2ncccc2C)n1,0.235%
9,O=C(Nc1ccccc1OCC(F)F)N[C@@H]1C=C[C@H](CO)C1,4.97%
10,NC(=O)c1cnc(NC2CCC(c3ccccc3)CC2)c(Cl)c1 (centres undefined),-2.31%
11,CN(c1ncc(C(N)=O)cc1Cl)C1CCC(c2ccccc2)CC1 (centres undefined),-3.58%
12,CC(COc1ccccc1F)NC(=O)N[C@@H]1C=C[C@H](CO)C1 (some centres undefined),-7.04%
13,CN(Cc1ncnn1C)C(=O)c1ccccc1NCc1ccccc1,8.8%
14,Cc1nnc(CN2CCC(Oc3ccc(C)c(C)c3)CC2)o1,-4.89%
15,COc1ccc(-c2cnc(CN3CCCC3CO)o2)cc1 (centres undefined),7.93%
16,CC(CNS(N)(=O)=O)c1ccc(F)c(F)c1 (centres undefined),3.38%
17,COCCOc1ncccc1C(=O)N1CCCn2ncnc21,-5.4%
18,COCCN(Cc1ccccc1)c1cc(C)ncn1,-6.25%
19,COCc1nc(C(=O)N(Cc2ccccc2)CC(C)C(=O)O)cs1 (centres undefined),-4.63%
20,COCCN(CC(C)C)c1cc(C)ncn1,6.75%
21,COc1cccc2[nH]cc(CCNC(=O)N3CCCC3CO)c12 (centres undefined),2.83%
22,OCC1CCCN1c1cc(NCCc2ccccn2)ncn1 (centres undefined),14.5%
23,Cn1ccnc1CN(Cc1cccnc1)CC1CCCO1 (centres undefined),-8.2%
24,CN(C)C(=O)C1CCCN1CCCNC(=O)Cc1ccccc1F (centres undefined),-16.1%

row,SMILES,cytotoxicity at 70.5 h
1,CCCS(=O)(=O)NC1CCN(c2cccc(F)c2C#N)CC1,-19.1%
2,O=C(NCCNc1ncccn1)N1CCCC1c1ccncc1 (centres undefined),1.65%
3,COc1ccc(C2CCCN2C(=O)NCCNc2ccccn2)cc1 (centres undefined),-19.3%
4,O=C(NCC1CC1)C1CSCN1S(=O)(=O)c1ccccc1 (centres undefined),-15.1%
5,Cc1cc(N2CCC(N(C)C(=O)c3ccc(C#N)cc3)CC2)nc(C)n1,-7.65%
6,Cc1cc(N2CCC(N(C)C(=O)c3ccccc3F)CC2)nc(C)n1,15.8%
7,OCC1CCCN1c1cc(NCc2cc3ccccc3o2)ncn1 (centres undefined),-18.3%
8,OCC1CCCN1c1cc(NCCc2ccsc2)ncn1 (centres undefined),-15.1%
9,OCC1CCCN1c1cc(NCCNc2cccnn2)ncn1 (centres undefined),-6.7%
10,CSCC(CCO)NC(=O)Nc1ccc(Br)cc1 (centres undefined),-11.8%
11,Cc1cn(-c2ccccc2)nc1NS(=O)(=O)c1ccc(C(=O)O)cc1F,-18%
12,Cc1cn(-c2ccccc2)nc1NS(=O)(=O)c1ccc(C(=O)O)cc1,10.8%
13,N#Cc1cc(F)c(N2CCC(NS(=O)(=O)c3cccs3)CC2)c(F)c1,-20%
14,O=C(NCCCn1nc2ccccn2c1=O)NCC(C1CC1)C1CC1,-12.3%
15,O=C(NCCCn1nc2ccccn2c1=O)NC(C1CC1)C1CC1,-16.5%
16,Cc1n[nH]c(C)c1C1CCCN1C(=O)NCC(=O)Nc1ccccc1 (centres undefined),6.46%
17,Cc1cc(CN(Cc2cccnc2)CC2CCCO2)on1 (centres undefined),-1.62%
18,Cc1cnc(CN2CCN(c3nc(C)cs3)C(C)C2)cn1 (centres undefined),-16.4%
19,Cc1n[nH]c(C)c1C1CCCN1C(=O)NC(C)(C)C (centres undefined),4.46%
20,Cc1n[nH]c(C)c1C1CCCN1C(=O)Cc1cccc(F)c1 (centres undefined),-19.6%
21,CCCN1CCC(CNC(=O)N2CCCC2c2c(C)n[nH]c2C)CC1 (centres undefined),3.87%
22,CC1CN(C)c2ccccc2CN1C(=O)c1ccncc1F (centres undefined),35%
23,Cc1nc(C)n(CC2CN(CCn3cccn3)CCO2)n1 (centres undefined),31.9%
24,Cc1ccc(OCCC(=O)NC(C)c2ccncc2)cc1 (centres undefined),-2.16%

row,SMILES,cytotoxicity at 70.5 h
1,CS(=O)(=O)NCC1CCCN(C(=O)c2ccc3c(c2)CCC3)C1 (centres undefined),3.24%
2,Cc1nccn1-c1cc(CNC(=O)c2ccnc(N(C)C)c2)ccn1,-10.5%
3,CC(C)S(=O)(=O)NCC1CCCN(C(=O)c2ccc(Cl)cc2)C1 (centres undefined),6.86%
4,Cc1occc1C(=O)N1CCCN(Cc2cnn(C(C)C)c2)CC1,-6.65%
5,Cc1nc(C)n(CC2CN(CCCc3ccccc3)CCO2)n1 (centres undefined),-4.71%
6,COc1ccc(CCN2CCOC(Cn3nc(C)nc3C)C2)cc1 (centres undefined),-5.86%
7,Cc1cc(C)cc(C(=O)Nc2ccc(CC3CC(=O)NC3=O)cc2)c1 (centres undefined),-1.28%
8,C1CN(c2nc(C3CC3)ns2)CCO1,-5.18%
9,O=C(NCCOc1ncc(Cl)cc1Cl)c1ccoc1,21.7%
10,O=C(NCCOc1ncc(Cl)cc1Cl)c1cccnc1,8.03%
11,CCc1ccc(C(=O)Nc2ccc(CC3CC(=O)NC3=O)cc2)s1 (centres undefined),-4%
12,CCc1ccc(CNCC2CCN(CCO)CC2)cc1,16.5%
13,Cc1ccc2c(c1)OC1(NC2=O)C(=O)N(C)c2ccccc21 (centres undefined),16.7%
14,Cc1ccc(CNC(c2ccc(F)cc2)c2nccn2C)o1 (centres undefined),-7.32%
15,Cc1cc(C(C)NC(=O)CCN2C(=O)c3ccccc3C2=O)c(C)o1 (centres undefined),28.1%
16,O=C(NCCCn1cncn1)c1ccc(-c2ccco2)[nH]c1=O,-3.92%
17,O=C(NCCCn1cncn1)c1ccc(-c2ccccc2)[nH]c1=O,-11.4%
18,Cc1cc(C(=O)NCC2(C(N)=O)CCOCC2)nn1C(C)(C)C,-6.96%
19,CC(C)(C)n1nc(C(=O)NCC2(C(N)=O)CCOCC2)cc1C1CC1,-22.5%
20,CC(C)(C)n1nc(C2CC2)cc1C(=O)NCC1(C(N)=O)CCOCC1,22.2%
21,Cc1nn(C(C)(C)C)c(C)c1C(=O)NCC1(C(N)=O)CCOCC1,-8.76%
22,CC1CN(C)CCN1C(=O)c1cnn(-c2ccc(Cl)cc2)c1 (centres undefined),19.4%
23,CCC(C)NC(=O)c1ccc(NC(=O)CCc2ccncc2)c(C)c1 (centres undefined),-3.96%
24,Cc1noc(C)c1CSc1nc(=O)ccn1C(C)C,-3.07%

row,SMILES,cytotoxicity at 70.5 h
1,Cc1nc(CN2CCCC(N(C)c3cnc4ccccc4n3)C2)no1 (centres undefined),20.5%
2,O=C(NCc1ccccc1CO)C1COc2ccccc21 (centres undefined),-0.572%
3,CS(=O)(=O)c1nccn1Cc1ccncc1,-4.41%
4,CC(CC(=O)N1CCCS1(=O)=O)c1ccccc1C(F)(F)F (centres undefined),3.27%
5,CCC(C)NC(=O)c1ccc(NC(=O)CCCn2cncn2)c(C)c1 (centres undefined),14.8%
6,N#CC(NC(=O)CCC1CCC1)c1cnn(-c2ccccc2)c1 (centres undefined),17.3%
7,N#CC(NC(=O)CC1CCSCC1)c1cnn(-c2ccccc2)c1 (centres undefined),-3.51%
8,CS(=O)(=O)c1nccn1Cc1ccc(OC(F)F)cc1,-4.68%
9,O=C(c1cc[nH]n1)N(Cc1cccc(O)c1)CC1CC1,-7.41%
10,CC(NCCn1c(=O)oc2ccccc21)c1ccccn1 (centres undefined),-5.54%
11,Cc1nnc2n1CCN(C(C)c1nnc(-c3cccs3)o1)C2 (centres undefined),-8.71%
12,O=C(c1cc2ccccc2o1)N1CCN(Cn2cc(Cl)cn2)CC1,-5.33%
13,Cc1noc(C)c1CN(C)C(=O)CCOc1ccc(Cl)cc1,-11.7%
14,Cc1cc(C(=O)N2CCN(Cn3cc(Cl)cn3)CC2)on1,-8.38%
15,Cc1ccc(-c2nnc(C(C)N3CCn4c(C)nnc4C3)o2)cc1 (centres undefined),-1.43%
16,CC(NC(N)=O)C(=O)Nc1ccc(OCc2cccc(F)c2)c(F)c1 (centres undefined),-10.3%
17,Cc1cccc(COc2ccc(NC(=O)C(C)NC(N)=O)c(C)c2)c1 (centres undefined),-9.19%
18,Cc1ccccc1OCCC(=O)N(C)Cc1c(C)noc1C,-11.1%
19,CSC(C)C(=O)N1CCN(CC(C)(C)O)CC1 (centres undefined),-14%
20,CC(C)c1ccc(C(=O)O)cc1S(=O)(=O)Nc1ccc(=O)n(C)c1,2.84%
21,CCN1CCN(C(=O)Cc2ccc(S(=O)(=O)C(F)F)cc2)CC1,5.94%
22,CC(c1nnc(-c2cccs2)o1)N1CCn2c(nnc2C2CC2)C1 (centres undefined),-0.792%
23,Cc1csc(C(C#N)C(=O)Nc2ccccc2)n1 (centres undefined),-0.341%
24,Cc1noc(C)c1CNC(C(=O)N1CCOCC1)C(C)C (centres undefined),-7.07%

row,SMILES,cytotoxicity at 70.5 h
1,CCC1CN(C(=O)c2cnc(-c3ccccc3)s2)CCO1 (centres undefined),-1.27%
2,CCc1ccsc1C(=O)N1CCN(C(=O)c2ccc(C)o2)CC1,-5.92%
3,COC(=O)c1sccc1CN1CCN(C(=O)c2ccc(C)o2)CC1,-8.65%
4,CCCNC(=O)CSCc1ccc(S(=O)(=O)N(C)C)o1,-6.98%
5,CC(C)C(c1cccnc1)N(C)C(=O)Cc1ccc(O)cc1 (centres undefined),0.393%
6,Cc1cnc(CN(C)C2CCN(Cc3nc4c(F)cccc4[nH]3)C2)o1 (centres undefined),1.64%
7,COCC(O)CN(C)c1ccnc2ccc(Cl)cc12 (centres undefined),13.9%
8,Cc1noc(C)c1CCC(=O)Nc1ccn(C)n1,1.75%
9,Cc1noc(C)c1C(=O)N1CCSc2ccc(Cl)cc21,11.5%
10,Cc1cc(C)cc(OCCN(C)Cc2ccc(S(=O)(=O)N(C)C)o2)c1,19.6%
11,Cc1cc(C(=O)N2CCCC(c3nncn3C)C2)no1 (centres undefined),-5.95%
12,O=C(Nc1ccccn1)C1CCN(Cc2cc3c(cc2O)OCO3)CC1,3.83%
13,CC1CCN(S(=O)(=O)N2Cc3ccccc3C[C@H]2C(N)=O)CC1,-4.51%
14,CC(=O)N(C)c1nc(Cn2nnnc2C(C)C)cs1,-6.77%
15,O=C(NCC1CCN(CCc2ccccc2)C1)c1cc(Cl)c[nH]1 (centres undefined),2.19%
16,CCn1nc(C)cc1C(=O)NCc1nc(C)no1,-6.53%
17,O=C(NCc1nc2cc(F)ccc2[nH]1)c1ccc[nH]1,17.9%
18,CN(CC(F)(F)F)C(=O)CNC(=O)N1CCC(N2CCCC2)C1 (centres undefined),-9.53%
19,CCCc1nnnn1CC(=O)NCc1cccc(C)c1,-3.35%
20,CCc1cnccc1C(=O)NC1CCN(Cc2ccccc2F)CC1,-6.35%
21,CC1COCCN1Cc1nc(C(C)(C)C)no1 (centres undefined),-6.43%
22,CCc1nnc(CN(C)CC2CCCCC2)o1,-0.472%
23,COCC(O)CN(C)c1ccnc2cc(Br)ccc12 (centres undefined),-6.19%
